# Laboratory results published in PubChem BioAssay (NCI).
#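 Cultured in 96-well plates, cells were exposed to test compound for 48 hours across five concentrations. The concentration for full growth arrest is given as TGI.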
# Columns and labels:
# Assay in all cases: inhibition of tumour cell growth, NCI panel, 48 h
# 786-0 renal = test system: 786-0 renal
# A498 renal = test system: A498 renal
# A549 NSCLC = test system: A549 NSCLC
# ACHN renal = test system: ACHN renal
# BT-549 breast = test system: BT-549 breast
# COLO 205 colon = test system: COLO 205 colon
# DU-145 prostate = test system: DU-145 prostate
# EKVX NSCLC = test system: EKVX NSCLC
# HCT-116 colon = test system: HCT-116 colon
# HCT-15 colon = test system: HCT-15 colon
# HL-60(TB) leukemia = test system: HL-60(TB) leukemia
# HOP-62 NSCLC = test system: HOP-62 NSCLC
# HS 578T breast = test system: HS 578T breast
# HT29 colon = test system: HT29 colon
# IGROV1 ovarian = test system: IGROV1 ovarian
# K-562 leukemia = test system: K-562 leukemia
# KM12 colon = test system: KM12 colon
# LOX IMVI melanoma = test system: LOX IMVI melanoma
# M14 melanoma = test system: M14 melanoma
# MALME-3M melanoma = test system: MALME-3M melanoma
# MCF7 breast = test system: MCF7 breast
# MDA-MB-231 breast = test system: MDA-MB-231 breast
# MDA-N = test system: MDA-N
# MOLT-4 leukemia = test system: MOLT-4 leukemia
# NCI-H226 lung = test system: NCI-H226 lung
# NCI-H23 lung = test system: NCI-H23 lung
# NCI-H460 lung = test system: NCI-H460 lung
# NCI/ADR-RES ovarian = test system: NCI/ADR-RES ovarian
# OVCAR-3 ovarian = test system: OVCAR-3 ovarian
# OVCAR-4 ovarian = test system: OVCAR-4 ovarian
# OVCAR-5 ovarian = test system: OVCAR-5 ovarian
# OVCAR-8 ovarian = test system: OVCAR-8 ovarian
# PC-3 prostate = test system: PC-3 prostate
# RPMI-8226 leukemia = test system: RPMI-8226 leukemia
# RXF 393 renal = test system: RXF 393 renal
# SF-268 CNS = test system: SF-268 CNS
# SF-295 CNS = test system: SF-295 CNS
# SF-539 CNS = test system: SF-539 CNS
# SK-MEL-2 melanoma = test system: SK-MEL-2 melanoma
# SK-MEL-28 melanoma = test system: SK-MEL-28 melanoma
# SK-MEL-5 melanoma = test system: SK-MEL-5 melanoma
# SK-OV-3 ovarian = test system: SK-OV-3 ovarian
# SN12C renal = test system: SN12C renal
# SNB-19 CNS = test system: SNB-19 CNS
# SNB-75 CNS = test system: SNB-75 CNS
# SR leukemia = test system: SR leukemia
# SW-620 colon = test system: SW-620 colon
# T-47D breast = test system: T-47D breast
# TK-10 renal = test system: TK-10 renal
# U251 CNS = test system: U251 CNS
# UACC-257 melanoma = test system: UACC-257 melanoma
# UACC-62 melanoma = test system: UACC-62 melanoma
# UO-31 renal = test system: UO-31 renal
compound,measurement,setting,value
CN(C)c1ccc(/C=C2\C[C@H]3[C@@H]4CC=C5C[C@@H](O)CC[C@]5(C)[C@H]4CC[C@]3(C)[C@H]2O)cc1,TGI,786-0 renal,42 µM
same,TGI,A498 renal,31.5 µM
same,TGI,A549 NSCLC,38.6 µM
same,TGI,ACHN renal,30.7 µM
same,TGI,BT-549 breast,43.3 µM
same,TGI,COLO 205 colon,23 µM
same,TGI,DU-145 prostate,> 100 µM
same,TGI,EKVX NSCLC,23.8 µM
same,TGI,HCT-116 colon,28.1 µM
same,TGI,HCT-15 colon,39.7 µM
same,TGI,HL-60(TB) leukemia,> 100 µM
same,TGI,HOP-62 NSCLC,> 100 µM
same,TGI,HS 578T breast,50.8 µM
same,TGI,HT29 colon,27.5 µM
same,TGI,IGROV1 ovarian,35.3 µM
same,TGI,K-562 leukemia,> 100 µM
same,TGI,KM12 colon,> 100 µM
same,TGI,LOX IMVI melanoma,27.1 µM
same,TGI,M14 melanoma,41.3 µM
same,TGI,MALME-3M melanoma,38.4 µM
same,TGI,MCF7 breast,34.4 µM
same,TGI,MDA-MB-231 breast,34.5 µM
same,TGI,MDA-N,56.9 µM
same,TGI,MOLT-4 leukemia,> 100 µM
same,TGI,NCI-H226 lung,34.7 µM
same,TGI,NCI-H23 lung,35.6 µM
same,TGI,NCI-H460 lung,28.9 µM
same,TGI,NCI/ADR-RES ovarian,43.7 µM
same,TGI,OVCAR-3 ovarian,59.8 µM
same,TGI,OVCAR-4 ovarian,98.6 µM
same,TGI,OVCAR-5 ovarian,36.2 µM
same,TGI,OVCAR-8 ovarian,13.1 µM
same,TGI,PC-3 prostate,25.8 µM
same,TGI,RPMI-8226 leukemia,> 100 µM
same,TGI,RXF 393 renal,68 µM
same,TGI,SF-268 CNS,34.8 µM
same,TGI,SF-295 CNS,44.8 µM
same,TGI,SF-539 CNS,22.1 µM
same,TGI,SK-MEL-2 melanoma,42.9 µM
same,TGI,SK-MEL-28 melanoma,44.9 µM
same,TGI,SK-MEL-5 melanoma,34.3 µM
same,TGI,SK-OV-3 ovarian,88.1 µM
same,TGI,SN12C renal,40 µM
same,TGI,SNB-19 CNS,37.1 µM
same,TGI,SNB-75 CNS,> 100 µM
same,TGI,SR leukemia,> 100 µM
same,TGI,SW-620 colon,67.3 µM
same,TGI,T-47D breast,76.6 µM
same,TGI,TK-10 renal,33.7 µM
same,TGI,U251 CNS,22.6 µM
same,TGI,UACC-257 melanoma,35.7 µM
same,TGI,UACC-62 melanoma,30.2 µM
same,TGI,UO-31 renal,36.9 µM
